Reference: US9944607B2, “Thiohydantoin derivatives and uses thereof” (Whitehead Institute for Biomedical Research, priority 2012, dated 2018)
Converted amounts (≈) assume the structure as drawn. Where two headings read alike, the source gives them in different places. Blank lines part the entries; values can stand above or below the compound they belong to.

What was measured:
[1] = test system: NIH-3T3 mammalian fibroblasts; test: Counterscreen mammalian cell toxicity assay (Alamar Blue); format: cell-based, murine; conditions: n = 1, 48 hours, tested up to 26 μM
Procedure: Quiescent murine fibroblasts were subjected to incubation with compounds of interest for 48 hours. Subsequent cell viability was determined via measuring Alamar Blue fluorescence.
Procedures • After overnight culture, pin compounds into wells at 100 nL/well using the CyBio CyBi-Well pinning instrument. • Return the plates to the tissue culture incubator and incubate the culture for an additional 48 hours at 37° C. under 5% CO2. • At the completion of this incubation, add Alamar Blue solution diluted 1:40 in PBS to each well (10 μL/well) to achieve a final dilution of 1:200. • Incubate the plates for an additional 2-3 hours at 37° C. under 5% CO2. • Read the Relative Fluorescence Intensity (RFU) of wells on a standard plate reader as a measure of relative cell growth. […] 4.4.

[2] = test system: Candida albicans CaCi-2; test: Primary assay: C. albicans CaCi-2 growth inhibition (Alamar Blue); format: cell-based; conditions: for Growth Inhibition Activity, IC50 (μM), C. albicans (n = 3) CaCi-2 / IC50: 48 hours, tested up to 26 μM, n = 3; for Activity against C. albicans: CaCi-2, or both test strains (CaCi-2, CaCi-17) where the sentence names none; for IC50: read-out: Growth Inhibition Activity, IC50 (μM), C. albicans (n = 3) CaCi-2; for Drop in activity / potency relative to hit CID3889161: C. albicans growth inhibition
[3] = Solubility in PBS pH 7.4 with 1% DMSO; conditions: for solubility at 24 h: phosphate buffered saline with 1% DMSO, pH 7.4, aqueous buffer, kinetic from dmso stock
Procedure: Solubility was determined in phosphate buffered saline (PBS) pH 7.4 with 1% DMSO. Each compound was prepared in duplicate at 100 μM in both 100% DMSO and PBS with 1% DMSO. Compounds were allowed to equilibrate at room temperature with a 250 rpm orbital shake for 24 hours. After equilibration, samples were analyzed by UPLC-MS (Waters, Milford, Mass.) with compounds detected by SIR detection on a single quadrupole mass spectrometer. The DMSO samples were used to create a two-point calibration curve to which the response in PBS was fit.

[4] = test system: Candida albicans CaCi-17; test: Primary assay: C. albicans CaCi-17 growth inhibition (Alamar Blue); format: cell-based; conditions: for Growth Inhibition Activity, IC50 (μM), C. albicans (n = 3) CaCi-17 / IC50: 48 hours, tested up to 26 μM, n = 3; for IC50: read-out: Growth Inhibition Activity, IC50 (μM), C. albicans (n = 3) CaCi-17
[5] = Table 4, PBS pH 7.4 with 1% DMSO, 24 hours, room temperature

SMILES: Cc1ccc(N2C(=O)C(=O)NC2=S)cc1 [compound 56604884]
Growth Inhibition Activity, IC50 (μM), 3T3 Fibroblasts (n = 1) ([1]; Table 7): Inactive
Growth Inhibition Activity, IC50 (μM), C. albicans (n = 3) CaCi-2 ([2]; Table 7): inactive
solubility at 24 h [3]: 21 µM (≈ 4.63 µg/mL)
Growth Inhibition Activity, IC50 (μM), C. albicans (n = 3) CaCi-17 ([4]; Table 7): inactive

SMILES: CCOC(=O)N1C(=O)C2(CCCCC2)N(c2ccc(C(C)(C)C)cc2)C1=S [compound 56604837]
IC50 ([1]; read-out: Growth Inhibition Activity, IC50 (μM), 3T3 Fibroblasts (n = 1), Table 4): 16.5 µM
Growth Inhibition Activity, IC50 (μM), C. albicans (n = 3) CaCi-2 ([2]; Table 4): inactive
PBS Solubility [3, 5]: <1.0 µM
Growth Inhibition Activity, IC50 (μM), C. albicans (n = 3) CaCi-17 ([4]; Table 4): inactive

SMILES: Cc1ccc(N2C(=S)N(C(=O)Oc3ccccc3)C(=O)C23CCCCC3)cc1 [CID 56604875]
Activity against C. albicans [2]: no activity
Activity against C. albicans CaCi-17 as worded in the text [4]: no activity

SMILES: CCOC(=O)N1C(=O)C2(CCCCC2)N(c2ccccc2C)C1=S [compound 24052146]
Growth Inhibition Activity, IC50 (μM), 3T3 Fibroblasts (n = 1) ([1]; Table 4): Inactive
IC50 ([2]; Table 4): 1.2 µM
PBS Solubility [3, 5]: 18 µM
IC50 ([4]; Table 4): 23.9 µM

SMILES: Cc1ccc(N2C(=S)NC(=O)C23CCCCC3)cc1 [CID 56604892]
Activity against C. albicans [2]: failed to inhibit C. albicans growth

SMILES: Cc1ccc(N2CC(=O)NC2=O)cc1 [compound 759335]
Growth Inhibition Activity, IC50 (μM), 3T3 Fibroblasts (n = 1) ([1]; Table 7): Inactive
Growth Inhibition Activity, IC50 (μM), C. albicans (n = 3) CaCi-2 ([2]; Table 7): inactive
solubility at 24 h [3]: > 100 µM
Growth Inhibition Activity, IC50 (μM), C. albicans (n = 3) CaCi-17 ([4]; Table 7): inactive

SMILES: CCCOC(=O)N1C(=O)C2(CCCCC2)N(c2ccc(C)cc2)C1=S [compound 56604849]
Growth Inhibition Activity, IC50 (μM), 3T3 Fibroblasts (n = 1) ([1]; Table 3): Inactive
IC50 ([2]; Table 3): 1.2 µM
PBS Solubility ([3]; Table 3, PBS pH 7.4 with 1% DMSO, 24 hours, room temperature): <1.0 µM
Growth Inhibition Activity, IC50 (μM), C. albicans (n = 3) CaCi-17 ([4]; Table 3): inactive

SMILES: CCOC(=O)N1C(=S)N(c2ccc(C)cc2)C(=O)C12CCCCC2 [CID 56604852]
Activity against C. albicans [2]: inactive

SMILES: COC(=O)N1C(=O)C2(CCCCC2)N(c2ccc(C)cc2)C1=S [compound 3951437]
Growth Inhibition Activity, IC50 (μM), 3T3 Fibroblasts (n = 1) ([1]; Table 3): Inactive
IC50 ([2]; Table 3): 1.9 µM
IC50 ([4]; Table 3): 17.1 µM

SMILES: CCOC(=O)N1C(=O)C2(CCCCC2)N(Cc2ccccc2)C1=S [CID 56604878]
Drop in activity / potency relative to hit CID3889161 [2]: 10 fold

SMILES: CCOC(=O)N1C(=O)C(C)(C)N(c2ccc(C)cc2)C1=S [compound 56604873]
Growth Inhibition Activity, IC50 (μM), 3T3 Fibroblasts (n = 1) ([1]; Table 5): Inactive
Growth Inhibition Activity, IC50 (μM), C. albicans (n = 3) CaCi-2 ([2]; Table 5): inactive
Growth Inhibition Activity, IC50 (μM), C. albicans (n = 3) CaCi-17 ([4]; Table 5): inactive

SMILES: CCOC(=O)N1C(=O)C2(CCOCC2)N(c2ccc(C)cc2)C1=S [CID 56604818]
Drop in activity / potency relative to hit CID3889161 [2]: 100 fold

More lines, main results first:

Growth Inhibition Activity, IC50 (μM), C. albicans (n = 3) CaCi-2 ([2]; Table 6): inactive
solubility at 24 h [3]: 55 µM (≈ 18.2 µg/mL)
Growth Inhibition Activity, IC50 (μM), C. albicans (n = 3) CaCi-17 ([4]; Table 6): inactive
SMILES: CCOC(=O)N1C(=O)N(c2ccc(C)cc2)C2(CCCCC2)C1=O [compound 56604827]
Growth Inhibition Activity, IC50 (μM), 3T3 Fibroblasts (n = 1) ([1]; Table 6): Inactive

Growth Inhibition Activity, IC50 (μM), C. albicans (n = 3) CaCi-2 ([2]; Table 7): inactive
solubility at 24 h [3]: 5.9 µM (≈ 1.62 µg/mL)
Growth Inhibition Activity, IC50 (μM), C. albicans (n = 3) CaCi-17 ([4]; Table 7): inactive
SMILES: Cc1ccc(N2C(=O)C3(CCCCC3)NC2=S)cc1 [compound 56604856]
Growth Inhibition Activity, IC50 (μM), 3T3 Fibroblasts (n = 1) ([1]; Table 7): Inactive

Growth Inhibition Activity, IC50 (μM), C. albicans (n = 3) CaCi-2 ([2]; Table 7): inactive
solubility at 24 h [3]: > 100 µM
Growth Inhibition Activity, IC50 (μM), C. albicans (n = 3) CaCi-17 ([4]; Table 7): inactive
SMILES: O=C1NC(=S)N(Cc2ccccc2)C12CCCCC2 [compound 14297244]
Growth Inhibition Activity, IC50 (μM), 3T3 Fibroblasts (n = 1) ([1]; Table 7): Inactive

Growth Inhibition Activity, IC50 (μM), C. albicans (n = 3) CaCi-2 ([2]; Table 6): inactive
solubility at 24 h [3]: < 1 µM
Growth Inhibition Activity, IC50 (μM), C. albicans (n = 3) CaCi-17 ([4]; Table 6): inactive
SMILES: CCCCN1C(=O)N(c2ccc(C)cc2)C2(CCCCC2)C1=S [compound 56604857]
IC50 ([1]; Mus musculus, NIH3T3, read-out: Growth Inhibition Activity, IC50 (μM), 3T3 Fibroblasts (n = 1), Table 6): 20.9 µM

Growth Inhibition Activity, IC50 (μM), C. albicans (n = 3) CaCi-2 ([2]; Table 3): inactive
PBS Solubility ([3]; pH 7.4): <1.0 µM
Growth Inhibition Activity, IC50 (μM), C. albicans (n = 3) CaCi-17 ([4]; Table 3): inactive
SMILES: CCCCN1C(=O)C2(CCCCC2)N(c2ccc(C)cc2)C1=S [compound 56604814]
IC50 ([1]; read-out: Growth Inhibition Activity, IC50 (μM), 3T3 Fibroblasts (n = 1), Table 3): 24.2 µM

Growth Inhibition Activity, IC50 (μM), C. albicans (n = 3) CaCi-2 ([2]; Table 3): inactive
PBS Solubility ([3]; pH 7.4): 7.8 µM
Growth Inhibition Activity, IC50 (μM), C. albicans (n = 3) CaCi-17 ([4]; Table 3): inactive
SMILES: Cc1ccc(N2C(=S)NC(=O)C23CCCCC3)cc1 [compound 56604892]
Growth Inhibition Activity, IC50 (μM), 3T3 Fibroblasts (n = 1) ([1]; Table 3): Inactive

Growth Inhibition Activity, IC50 (μM), C. albicans (n = 3) CaCi-2 ([2]; Table 7): inactive
solubility at 24 h [3]: 62 µM (≈ 15.3 µg/mL)
Growth Inhibition Activity, IC50 (μM), C. albicans (n = 3) CaCi-17 ([4]; Table 7): inactive
SMILES: Cc1ccc(N2C(=S)NC(=O)C23CCC3)cc1 [compound 56604811]
Growth Inhibition Activity, IC50 (μM), 3T3 Fibroblasts (n = 1) ([1]; Table 7): Inactive

Growth Inhibition Activity, IC50 (μM), C. albicans (n = 3) CaCi-2 ([2]; Table 7): inactive
solubility at 24 h [3]: 72 µM (≈ 18.7 µg/mL)
Growth Inhibition Activity, IC50 (μM), C. albicans (n = 3) CaCi-17 ([4]; Table 7): inactive
SMILES: Cc1ccc(N2C(=S)NC(=O)C23CCCC3)cc1 [compound 56604876]
IC50 ([1]; Mus musculus, NIH3T3, read-out: Growth Inhibition Activity, IC50 (μM), 3T3 Fibroblasts (n = 1), Table 7): 32.6 µM

Growth Inhibition Activity, IC50 (μM), C. albicans (n = 3) CaCi-2 ([2]; Table 3): inactive
PBS Solubility ([3]; pH 7.4): 6.6 µM
Growth Inhibition Activity, IC50 (μM), C. albicans (n = 3) CaCi-17 ([4]; Table 3): inactive
SMILES: Cc1ccc(N2C(=S)N(C)C(=O)C23CCCCC3)cc1 [compound 56604835]
Growth Inhibition Activity, IC50 (μM), 3T3 Fibroblasts (n = 1) ([1]; Table 3): Inactive

Growth Inhibition Activity, IC50 (μM), C. albicans (n = 3) CaCi-2 ([2]; Table 7): inactive
solubility at 24 h [3]: > 100 µM
Growth Inhibition Activity, IC50 (μM), C. albicans (n = 3) CaCi-17 ([4]; Table 7): inactive
SMILES: CCOC(=O)N1C(=S)NC(=O)C12CCCCC2 [compound 56604829]
Growth Inhibition Activity, IC50 (μM), 3T3 Fibroblasts (n = 1) ([1]; Table 7): Inactive

Growth Inhibition Activity, IC50 (μM), C. albicans (n = 3) CaCi-2 ([2]; Table 7): inactive
solubility at 24 h [3]: 55 µM (≈ 12.9 µg/mL)
Growth Inhibition Activity, IC50 (μM), C. albicans (n = 3) CaCi-17 ([4]; Table 7): inactive
SMILES: Cc1ccc(N2C(=S)NC(=O)C2(C)C)cc1 [compound 56604879]
Growth Inhibition Activity, IC50 (μM), 3T3 Fibroblasts (n = 1) ([1]; Table 7): Inactive

Growth Inhibition Activity, IC50 (μM), C. albicans (n = 3) CaCi-2 ([2]; Table 6): inactive
solubility at 24 h [3]: < 1 µM
Growth Inhibition Activity, IC50 (μM), C. albicans (n = 3) CaCi-17 ([4]; Table 6): inactive
SMILES: CCOC(=O)N1C(=S)N(c2ccc(C)cc2)C(=O)C12CCCCC2 [compound 56604852]
Growth Inhibition Activity, IC50 (μM), 3T3 Fibroblasts (n = 1) ([1]; Table 6): Inactive

Growth Inhibition Activity, IC50 (μM), C. albicans (n = 3) CaCi-2 ([2]; Table 7): inactive
solubility at 24 h [3]: > 100 µM
Growth Inhibition Activity, IC50 (μM), C. albicans (n = 3) CaCi-17 ([4]; Table 7): inactive
SMILES: Cc1ccc(N2C(=S)NC(=O)C23CCOCC3)cc1 [compound 56604885]
Growth Inhibition Activity, IC50 (μM), 3T3 Fibroblasts (n = 1) ([1]; Table 7): Inactive

Growth Inhibition Activity, IC50 (μM), C. albicans (n = 3) CaCi-2 ([2]; Table 6): inactive
solubility at 24 h [3]: 26 µM (≈ 11.3 µg/mL)
Growth Inhibition Activity, IC50 (μM), C. albicans (n = 3) CaCi-17 ([4]; Table 6): inactive
SMILES: CCOC(=O)N1C(=S)N(c2ccc(C)cc2)C2(CCCCC2)/C1=N/Cc1ccccc1 [compound 56604867]
Growth Inhibition Activity, IC50 (μM), 3T3 Fibroblasts (n = 1) ([1]; Table 6): Inactive
